Data as given in publication PMC11909904 (Cardiovascular Diabetology, 2025).

Target: T1, GPR30 (Rattus norvegicus, UniProt O08878)
T1 sequence (O08878 1-375): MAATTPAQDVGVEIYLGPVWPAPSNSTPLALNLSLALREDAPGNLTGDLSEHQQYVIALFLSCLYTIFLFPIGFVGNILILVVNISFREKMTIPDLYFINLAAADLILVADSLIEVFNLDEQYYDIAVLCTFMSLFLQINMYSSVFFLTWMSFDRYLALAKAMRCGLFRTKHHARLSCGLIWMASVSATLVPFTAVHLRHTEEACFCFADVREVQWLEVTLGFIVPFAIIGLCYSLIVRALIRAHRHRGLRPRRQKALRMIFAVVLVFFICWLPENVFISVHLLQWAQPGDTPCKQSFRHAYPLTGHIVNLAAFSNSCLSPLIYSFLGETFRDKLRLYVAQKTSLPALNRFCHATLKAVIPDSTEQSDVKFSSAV
Test: CETSA in intact RVECs and lysates
Assay type: biochemical
Details: 30 µM Rd (CETSA)

In the case of `CC(C)=CCC[C@](C)(O[C@@H]1O[C@H](CO)[C@@H](O)[C@H](O)[C@H]1O)[C@H]1CC[C@]2(C)[C@@H]1[C@H](O)C[C@@H]1[C@@]3(C)CC[C@H](O[C@@H]4O[C@H](CO)[C@@H](O)[C@H](O)[C@H]4O[C@@H]4O[C@H](CO)[C@@H](O)[C@H](O)[C@H]4O)C(C)(C)[C@@H]3CC[C@]12C` [Rd, Ginsenoside Rd], the CETSA is reported as “the incubation with Rd stabilized GPR30 in heat-denatured intact RVECs and cell lysates”.
